Experimental data reported in patent US12697316B2, “Combination therapy with acetyl-leucine and miglustat” (INTRABIO LTD., priority 2019, dated 2026).

What was measured:
Npc1^−/− mice [1] = assay: Survival / life span of Npc1−/− mice; assay type: in vivo, mouse; conditions: Npc1−/− mice; ADLL 0.1 g/kg/day, miglustat 600 mg/kg/day in chow; untreated Npc1−/− 87 days
Procedure: (§1) BALBc/NPC ^h and Sandhoff mice were bred as heterozygotes to generate affected mice (Npc1^−/−, Hexb^−/−) and controls (Npc^+/+, Hexb^+/+). The mice were housed under non-sterile conditions, with food and water available ad libitum. All experiments were conducted using protocols approved by the UK Home Office Animal Scientific Procedures Act, 1986.
(§2) ADLL and enantiomers (ADLL: Molekula #73891210, ALL: Sigma Aldrich #441511, ADL: Sigma #A0876) were administered as dry admix in powdered mouse diet (PicoLab Rodent Diet 20/5053, LabDiet) at a dose of 0.1 g/kg/day for in vivo studies. Treatment groups for in vivo study consisted of at least 5 mice per group. In vitro studies were conducted with each compound dissolved in PBS to generate a 50 mM stock solution and diluted to a 1 mM working concentration in media (DMEM High Glucose-Gibco #10566016).
(§3) Miglustat (Monsanto/Oxford GlycoSciences) was administered as a dry solid mixed with powdered chow (600 mg/kg/day) (see above) alone or in combination with ADLL.
The weight and activity of each mouse was recorded weekly until reaching the humane endpoint (defined as a loss of 1 g body weight within 24 h). Gait analysis was performed using CatWalk 10.5 system (Noldus) according to the manufacturer's instructions and five runs were recorded per animal at each time point. The camera was set to 40 cm below the walkway, the walkway was approximately 4 cm wide, and detection settings set to camera gain 14.05 and green intensity 0.12. Motor function was measured using an accelerating NG Rota Rod for mice (Ugo Basile) starting from 1 rpm to 10 rpm, accelerating every 30 seconds by one rpm. Bar crossing experiments on Sandhoff animals were conducted to measure motor strength and coordination. The apparatus used was modified from published studies. […] Latency to cross or fall from the bar was scored, with 120 sec, maximum, to termination of each trial. […]

Npc1^−/− mice [2] = assay: CatWalk automated gait analysis in Npc1−/− mice; assay type: in vivo, mouse; conditions: Npc1−/− mice, gait analysis at 10 weeks of age
Procedure: as §1, §2, §3
The weight and activity of each mouse was recorded weekly until reaching the humane endpoint (defined as a loss of 1 g body weight within 24 h). Gait analysis was performed using CatWalk 10.5 system (Noldus) according to the manufacturer's instructions and five runs were recorded per animal at each time point. The camera was set to 40 cm below the walkway, the walkway was approximately 4 cm wide, and detection settings set to camera gain 14.05 and green intensity 0.12. Motor function was measured using an accelerating NG Rota Rod for mice (Ugo Basile) starting from 1 rpm to 10 rpm, accelerating every 30 seconds by one rpm. Bar crossing experiments on Sandhoff animals were conducted to measure motor strength and coordination. The apparatus used was modified from published studies. Briefly, a metal bar (1.2 mm width and 26 cm in length) was suspended horizontally between two wooden supports 30 cm high over a cushioned surface and animals were allowed to grasp the center of the bar with forepaws only, the tail was released, and the clock was started. Latency to cross or fall from the bar was scored, with 120 sec, maximum, to termination of each trial. A score was given to each animal between +120 and −120. If crossing time was greater than 0, then score=120−CT; if falling time was greater than 0, the score=FT−120.

[3] = cited from earlier work

**Q.** What does the source list for `CCCCN1C[C@H](O)[C@@H](O)[C@H](O)[C@H]1CO` [miglustat, 1,5-(butylimino)-1,5-dideoxy-D-glucitol]?
**A.** median survival (Npc1^−/− mice [1]): 117 days; Stand mean (Npc1^−/− mice [2]): significantly improved; hind Duty Cycle percentages (Npc1^−/− mice [2]): showed no benefit; adverse effects in the treatment subjects ([3]; NPC first-line therapy, Champion et al. 2010): causes unwanted weight loss and gastrointestinal disturbances; weight loss ([3]; known effect, through appetite suppression): known to cause weight loss through appetite suppression
